Assay results published in the NIST ThermoML archive (doi:10.1021/je060271a).

Conditions: 283.16 K, Liquid, Vibrating tube method

CCCC(=O)OCC(COC(=O)CCC)(COC(=O)CCC)COC(=O)CCC [pentaerythritol tetrabutyrate]
Conditions	mass density [kg/m3]
5025.9 kPa	1062
5026.2 kPa	1062.1
5026.4 kPa	1061.9
5026.6 kPa	1061.9
5037.7 kPa	1062
5052.7 kPa	1062
5084.5 kPa	1061.9
5099.4 kPa	1062.1
5117.2 kPa	1062.1
5132.1 kPa	1062.1
5146.8 kPa	1062.1
5164.5 kPa	1062.1
5180.2 kPa	1062
5195.4 kPa	1062.1
5213.6 kPa	1062.2
5229.7 kPa	1062.1
5245.8 kPa	1062.1
5261.4 kPa	1062.2
5277.3 kPa	1062.1
5296.5 kPa	1062.2
5312.6 kPa	1062.2
5328.5 kPa	1062.1
5347.8 kPa	1062.1
5364.8 kPa	1062.2
5381.7 kPa	1062.1
5398.7 kPa	1062.3
5419.8 kPa	1062.2
5436.6 kPa	1062.3
5450.9 kPa	1062.3
5465.9 kPa	1062.2
5510.3 kPa	1062.3
5516.6 kPa	1062.3
5521.7 kPa	1062.3
5526.9 kPa	1062.3
5532.8 kPa	1062.3
5538.2 kPa	1062.2
5543.2 kPa	1062.3
5548.7 kPa	1062.2
5553.9 kPa	1062.3
5560.3 kPa	1062.2
5565.4 kPa	1062.2
5570.9 kPa	1062.4
5577.1 kPa	1062.3
5582.3 kPa	1062.3
5587.5 kPa	1062.3
5592.9 kPa	1062.4
5599.3 kPa	1062.2
5604.6 kPa	1062.4
5610 kPa	1062.4
5616.4 kPa	1062.4
5621.6 kPa	1062.3
5627.3 kPa	1062.3
5632.6 kPa	1062.3
5639.2 kPa	1062.3
5644.4 kPa	1062.3
5649.9 kPa	1062.3
5655.3 kPa	1062.3
5661.7 kPa	1062.4
5667.2 kPa	1062.2
5674 kPa	1062.4
5679.3 kPa	1062.4
5684.7 kPa	1062.3
5690 kPa	1062.3
5696.8 kPa	1062.3
5702.1 kPa	1062.4
5707.9 kPa	1062.3
5713.6 kPa	1062.5
5720.3 kPa	1062.4
5725.5 kPa	1062.5
5731.2 kPa	1062.4
5736.6 kPa	1062.5
5743.3 kPa	1062.3
5749 kPa	1062.4
5754.4 kPa	1062.4
5761.1 kPa	1062.4
5766.6 kPa	1062.4
5773.7 kPa	1062.5
5779.1 kPa	1062.4
5803.1 kPa	1062.5
5808.7 kPa	1062.4
5814.4 kPa	1062.5
5821.5 kPa	1062.5
5827.2 kPa	1062.4
5833 kPa	1062.4
5839.6 kPa	1062.5
5845.5 kPa	1062.5
5851.5 kPa	1062.4
5857.2 kPa	1062.5
5864.2 kPa	1062.5
5869.9 kPa	1062.5
5876.8 kPa	1062.5
5882.3 kPa	1062.4
5888.4 kPa	1062.6
5894.6 kPa	1062.4
5901.3 kPa	1062.5
5907.2 kPa	1062.5
5913.3 kPa	1062.5
5919.5 kPa	1062.5
5926.4 kPa	1062.5
5932.3 kPa	1062.6
5938.5 kPa	1062.6
5944.6 kPa	1062.5
5951.6 kPa	1062.5
5957.7 kPa	1062.5
5963.8 kPa	1062.5
5971 kPa	1062.5
5977.1 kPa	1062.7
5983.3 kPa	1062.6
5989.3 kPa	1062.6
5996.6 kPa	1062.6
6002.8 kPa	1062.6
6009.4 kPa	1062.5
6016.2 kPa	1062.6
6022.5 kPa	1062.7
6029.9 kPa	1062.5
6036 kPa	1062.6
6042.3 kPa	1062.6
6048.4 kPa	1062.6
6056 kPa	1062.7
6062 kPa	1062.6
6068.3 kPa	1062.6
6075.9 kPa	1062.6
6082.1 kPa	1062.6
6088.5 kPa	1062.6
6095.2 kPa	1062.7
6100.5 kPa	1062.6
6106.9 kPa	1062.6
6114.5 kPa	1062.7
6120.9 kPa	1062.6
6127.1 kPa	1062.6
6134.7 kPa	1062.6
6140.7 kPa	1062.6
6147.1 kPa	1062.7
6153.9 kPa	1062.7
6161.5 kPa	1062.6
6167.9 kPa	1062.6
6174.6 kPa	1062.7
6182.6 kPa	1062.6
6188.8 kPa	1062.7
6195.4 kPa	1062.8
6202.1 kPa	1062.6
6210.1 kPa	1062.8
6216.6 kPa	1062.6
6223.4 kPa	1062.6
6229.9 kPa	1062.6
6237.5 kPa	1062.7
